Laboratory results published in US20260216189A1, “TOPICAL COMPOSITIONS CONTAINING A JANUS KINASE INHIBITOR” (Zoetis Services LLC, priority 2023, published 2026).

How the values were obtained:
[1] = tested on: HDM challenge site (excoriation lesions and erythema); assay: house dust model (HDM) challenge, topical treatment of beagle dogs; colorimeter erythema and lesion scores; assay type: in vivo; conditions: for Post challenge total lesion scores compared to the saline group: treatment groups vs saline group
Protocol: (§1) The pharmacokinetics and pharmacodynamics (PK/PD) of orally dosed oclacitinib (0.4-0.6 mg/kg) is well understood. […] An oral 14C-oclacitinib study determined that a single 0.4 mg/kg dose achieved a mean skin concentration of 212 ng equivalents/gram of tissue. A house dust model (HDM) was used to assess the efficacy of the compositions described herein. The topical HDM challenge results in excoriation lesions and erythema at the challenge site. In one study, placebo (saline, TO1), triamcinolone acetonide 0.15 mg/mL (T02), oclacitinib maleate 7.5 mg/mL (T03) and oclacitinib maleate 10 mg/mL (T04) were topically administered to beagle dogs (8/group). The weights of drug in T02-T04 were freebase amounts.
Daily assessments were observed through Day 41. Colorimeter measurements provided quantified erythema scores. […] Lesions were observed and scored based on severity of erythema, papules and excoriations at the challenge site.

[2] = PK studies of topical compositions: systemic plasma and skin concentrations, single and repeat dose; assay type: in vivo
Protocol: Systemic plasma concentrations and skin concentrations 24 hours post dose were assessed for multiple compositions of the invention in a number of PK studies; including compositions with oclacitinib or oclacitinib maleate with API concentrations ranging from 1-10 mg/mL oclacitinib. The compositions tested to date have shown prolonged absorption that lasts at least 72 hours following a single dose and low topical bioavailability of less than 10% with single dose skin concentrations at least 20-80 times that observed in the oral single dose ^14C study. The oral 14C-oclacitinib study determined that a 0.4 mg/kg oral dose of oclacitinib achieved a mean skin concentration of 212 ng equivalents/gram. Permeation and penetration studies with compositions comprising a glycol, glycol ether and DMSO achieved single dose skin concentrations greater (28.4-54.5 μg/g) than that concentration achieved following oral administration, as mentioned above, and well above the reported oclacitinib IC50's for pro-inflammatory and pruritogenic cytokines.
The rate and amount of topical absorption can be a non-linear function of the API concentration of the composition. The topical compositions of the invention minimized systemic plasma oclacitinib concentrations while maintaining high skin concentrations. […] The studies to date and formulations described herein have shown that the compositions deliver skin concentrations greater than those observed with oral dosing. […] The topical single dose bioavailability is low, less than 5% when administered to an area that limits oral exposure from licking. […] Formulations with a lower oclacitinib concentration had lower systemic exposures.

[3] = subsequent study, 2-3 sprays of topical solution, skin concentrations; assay type: in vivo; conditions: 2.5-10 mg/mL, about 0.25 to 0.5 mL topical
Protocol: In a subsequent study, animals received 2.5-10 mg/mL oclacitinib by applying 2-3 sprays for a total of about 0.25 to 0.5 mL of the topical solution to an area of skin.

IL-31 induced itch = conditions: orally dosed oclacitinib (0.4-0.6 mg/kg); cited from earlier work
[4] = in vivo, po, 0.4 mg/kg
Protocol: as §1
Systemic plasma concentrations and skin concentrations 24 hours post dose were assessed for multiple compositions of the invention in a number of PK studies; including compositions with oclacitinib or oclacitinib maleate with API concentrations ranging from 1-10 mg/mL oclacitinib. […] The oral 14C-oclacitinib study determined that a 0.4 mg/kg oral dose of oclacitinib achieved a mean skin concentration of 212 ng equivalents/gram. […]

Molecule | erythema reduction compared to saline (colorimeter) ([1]; 7.5 mg/mL topical, Day 36 (P=0.0993)) | area under the curve (AUC) of total lesion scores compared to saline ([1]; 10 mg/mL (p<0.08)) | erythema reduction compared to saline (colorimeter) ([1]; 10 mg/mL topical, Days 27, 28, and 36 (p≤0.0948)) | lesion score reduction after the dosing period ended, versus other treatment groups ([1]; after the 28 day dosing period, observation through Day 41) | erythema reduction compared to saline (colorimeter) ([1]; both concentrations (7.5 and 10 mg/mL), topical once daily, after approximately 1 month of dosing) | Post challenge total lesion scores compared to the saline group [1] | lesion score reduction compared to saline ([1]; spray 7.5 mg/mL, Days 4, 7, 11, 26, 27, 30, and 39) | lesion score reduction compared to saline ([1]; spray 10 mg/mL, Days 7-11, 26, 30, and 32-34) | 24-hour post dose skin concentrations following repeat dosing, fold higher ([2]; across study comparisons, repeat vs single dosing) | accumulation in skin and plasma ([2]; following multiple daily administrations) | systemic levels ([2]; following multiple daily doses) | bioavailability ([2]; plasma, topical, administered to an area that limits oral exposure from licking) | systemic plasma concentrations: absorption and terminal phase ([2]; single and repeat dose studies) | PK following topical administration, maleate vs freebase formulations ([2]; topical) | skin concentrations of oclacitinib [3] | Plasma concentrations effective in reducing IL-31 induced itch (IL-31 induced itch) | mean skin concentration [4] | lesion score reduction compared to saline ([1]; triamcinolone 0.15 mg/mL, Day 35) | lesion score reduction compared to saline ([1]; triamcinolone 0.15 mg/mL, Days 4, 8, 10, 11) | erythema reduction compared to saline (colorimeter) ([1]; triamcinolone spray 0.15 mg/mL, Days 12, 14, 19, 24-26, 28-33, and 35-41 (P≤0.0912))
CNS(=O)(=O)C[C@H]1CC[C@H](N(C)c2ncnc3[nH]ccc23)CC1 [oclacitinib, N-methyl-1-{trans-4-[methyl (7H-pyrrolo[2,3-d]pyrimidin-4-yl)amino]cyclohexyl}-methanesulfonamide] | significantly greater reduction in erythema | significantly lower | significantly greater reduction | continued to demonstrate significant reduction in lesion scores | significant erythema reductions | significantly higher | significantly greater lesion score reductions | significantly greater lesion score reductions | at least 5 times | Accumulation in skin and plasma was observed | at a concentration that has shown efficacy in reducing IL-31 induced itch | < 5% | prolonged absorption with the terminal phase not evident 10 days post dose | comparable | acceptable skin concentrations | greater than 12 ng/ml | 212 ng equivalents/gram | – | – | –
oclacitinib maleate | – | – | – | – | – | – | – | – | – | – | – | – | – | comparable | – | – | – | – | – | –
CC1(C)O[C@@H]2C[C@H]3[C@@H]4CCC5=CC(=O)C=C[C@]5(C)[C@@]4(F)[C@@H](O)C[C@]3(C)[C@]2(C(=O)CO)O1 [triamcinolone, triamcinolone acetonide] | – | – | – | – | – | significantly higher | – | – | – | – | – | – | – | – | – | – | – | significantly lesser reduction | significantly greater reductions in lesion scores | significantly less reduction in erythema
